Results taken from BindingDB's records for doi:10.1021/acs.jmedchem.6b01879 (China Pharmaceutical University, 2017).

Test: Inhibition of ABCB1 in human K562/A02 cells assessed as potentiation of adriamycin-induced cytotoxicity by measuring compound concentration required for reduction of ADR IC50 after 48 hrs by MTT assay

Which EC50 does the source give for `COc1cc2c(cc1OC)CN(CCc1ccc(NC(=O)c3cccnc3NCc3ccncc3)cc1)CC2` here?
The EC50 was 120 nM.

Which EC50 does the source give for `O=C(Nc1ccc(N2CCOCC2)cc1)c1cccnc1NCc1ccncc1` here?
The EC50 was 329 nM.
